Molecules are shown by their SMILES.

The test has as its system HEK293 cells. Nature of the test: Preliminary screening as mRNA vectors, EGFP mRNA transfection of HEK293 cells. In kind it is cell-based. To be noted: EGFP mRNA 50 ng per well, 96-well plates; percentage of GFP fluorescent cells relative to total number of cells (Hoechst). In outline: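 Screening format: EGFP mRNA transfection (50 ng/well) into HEK293 in 10% FBS-supplemented DMEM. Percent green fluorescent cells, normalised to Hoechst nuclear count, gave the value; Lipofectamine2000 was the reference transfectant.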
For `CCCCCCCCCCCNc1nc(NCCN2CCCCC2)nc(SCCCCCCCC)n1` [Compound D4S8N11], the “Absolute mRNA transfection efficiency in HEK293 cells” value (from here on “Absolute mRNA transfection efficiency”) was 0.3%.

Turning to `CCCCCCCCCCCCNc1nc(NCCN2CCCCC2)nc(SCCCCCCCC)n1` [Compound D4S8N12], the “Absolute mRNA transfection efficiency” value was determined as 3.5%.

Consider `CCCCCCCCCCCCCNc1nc(NCCN2CCCCC2)nc(SCCCCCCCC)n1` [Compound D4S8N13], for which the “Absolute mRNA transfection efficiency” value worked out at 4.5%.

As to `CCCCCCCCCCCCCCCNc1nc(NCCN2CCCCC2)nc(SCCCCCCCC)n1` [Compound D4S8N15], the “Absolute mRNA transfection efficiency” value came to 2.6%.

As to `CCCCCCCCCCCCCCCCNc1nc(NCCN2CCCCC2)nc(SCCCCCCCC)n1` [Compound D4S8N16], the “Absolute mRNA transfection efficiency” value is 1.9%.

Consider `CCCCCCCCCCCCCCCCCCNc1nc(NCCN2CCCCC2)nc(SCCCCCCCC)n1` [Compound D4S8N18], for which the “Absolute mRNA transfection efficiency” value is 3.5%.

`CCCCCCCCSc1nc(NCCN2CCCCC2)nc(SCCCCCCCC)n1` [Compound D4S8S8]: the “Absolute mRNA transfection efficiency” value turned out to be 9.9%.

As to `CCCCCCCCCSc1nc(NCCN2CCCCC2)nc(SCCCCCCCC)n1` [Compound D4S8S9], the “Absolute mRNA transfection efficiency” value was found to be 14.3%.

On to `CCCCCCCCCCSc1nc(NCCN2CCCCC2)nc(SCCCCCCCC)n1` [Compound D4S8S10], for which the “Absolute mRNA transfection efficiency” value amounted to 9.2%.

Turning to `CCCCCCCCCCCSc1nc(NCCN2CCCCC2)nc(SCCCCCCCC)n1` [Compound D4S8S11], the “Absolute mRNA transfection efficiency” value is listed as 10.9%.

For `CCCCCCCCCCCCSc1nc(NCCN2CCCCC2)nc(SCCCCCCCC)n1` [Compound D4S8S12], the “Absolute mRNA transfection efficiency” value is recorded as 1.0%.

In the case of `CCCCCCCCCSc1nc(NCCCCCC)nc(NCCN2CCCCC2)n1` [Compound D4S9N6], the “Absolute mRNA transfection efficiency” value was 0.3%.

As for `CCCCCCCCCSc1nc(NCCCCCCC)nc(NCCN2CCCCC2)n1` [Compound D4S9N7], the “Absolute mRNA transfection efficiency” value came to 3.0%.

For the molecule `CCCCCCCCCSc1nc(NCCCCCCCC)nc(NCCN2CCCCC2)n1` [Compound D4S9N8], the “Absolute mRNA transfection efficiency” value is 6.6%.

For the molecule `CCCCCCCCCNc1nc(NCCN2CCCCC2)nc(SCCCCCCCCC)n1` [Compound D4S9N9], the “Absolute mRNA transfection efficiency” value came to 11.3%.

For `CCCCCCCCCCCNc1nc(NCCN2CCCCC2)nc(SCCCCCCCCC)n1` [Compound D4S9N11], the “Absolute mRNA transfection efficiency” value is 17.4%.

In the case of `CCCCCCCCCCCCNc1nc(NCCN2CCCCC2)nc(SCCCCCCCCC)n1` [Compound D4S9N12], the “Absolute mRNA transfection efficiency” value worked out at 9.5%.

Consider `CCCCCCCCCCCCCNc1nc(NCCN2CCCCC2)nc(SCCCCCCCCC)n1` [Compound D4S9N13], for which the “Absolute mRNA transfection efficiency” value amounted to 10.8%.

Regarding `CCCCCCCCCCCCCCCNc1nc(NCCN2CCCCC2)nc(SCCCCCCCCC)n1` [Compound D4S9N15], the “Absolute mRNA transfection efficiency” value is on record as 4.9%.

For the molecule `CCCCCCCCCCCCCCCCNc1nc(NCCN2CCCCC2)nc(SCCCCCCCCC)n1` [Compound D4S9N16], the “Absolute mRNA transfection efficiency” value turned out to be 2.2%.

On to `CCCCCCCCCCCCCCCCCCNc1nc(NCCN2CCCCC2)nc(SCCCCCCCCC)n1` [Compound D4S9N18], for which the “Absolute mRNA transfection efficiency” value is on record as 8.3%.

As to `CCCCCCCCCCSc1nc(NCCCCCC)nc(NCCN2CCCCC2)n1` [Compound D4S10N6], the “Absolute mRNA transfection efficiency” value came to 0.1%.

In the case of `CCCCCCCCCCSc1nc(NCCCCCCC)nc(NCCN2CCCCC2)n1` [Compound D4S10N7], the “Absolute mRNA transfection efficiency” value is listed as 0.1%.

As to `CCCCCCCCCCSc1nc(NCCCCCCCC)nc(NCCN2CCCCC2)n1` [Compound D4S10N8], the “Absolute mRNA transfection efficiency” value came to 0.1%.

In the case of `CCCCCCCCCCSc1nc(NCCCCCCCCC)nc(NCCN2CCCCC2)n1` [Compound D4S10N9], the “Absolute mRNA transfection efficiency” value is given as 0.2%.

In the case of `CCCCCCCCCCCNc1nc(NCCN2CCCCC2)nc(SCCCCCCCCCC)n1` [Compound D4S10N11], the “Absolute mRNA transfection efficiency” value was found to be 0.8%.

For the molecule `CCCCCCCCCCCCNc1nc(NCCN2CCCCC2)nc(SCCCCCCCCCC)n1` [Compound D4S10N12], the “Absolute mRNA transfection efficiency” value is 1.0%.

Consider `CCCCCCCCCCCCCNc1nc(NCCN2CCCCC2)nc(SCCCCCCCCCC)n1` [Compound D4S10N13], for which the “Absolute mRNA transfection efficiency” value is listed as 0.3%.

Regarding `CCCCCCCCCCCCCCCNc1nc(NCCN2CCCCC2)nc(SCCCCCCCCCC)n1` [Compound D4S10N15], the “Absolute mRNA transfection efficiency” value is listed as 1.5%.

Regarding `CCCCCCCCCCCCCCCCNc1nc(NCCN2CCCCC2)nc(SCCCCCCCCCC)n1` [Compound D4S10N16], the “Absolute mRNA transfection efficiency” value is reported as 14.7%.

As to `CCCCCCCCCCCCCCCCCCNc1nc(NCCN2CCCCC2)nc(SCCCCCCCCCC)n1` [Compound D4S10N18], the “Absolute mRNA transfection efficiency” value amounted to 37.7%.

Regarding `CCCCCCCCCCCSc1nc(NCCCCCC)nc(NCCN2CCCCC2)n1` [Compound D4S11N6], the “Absolute mRNA transfection efficiency” value worked out at 2.7%.

In the case of `CCCCCCCCCCCSc1nc(NCCCCCCC)nc(NCCN2CCCCC2)n1` [Compound D4S11N7], the “Absolute mRNA transfection efficiency” value amounted to 2.3%.

With `CCCCCCCCCCCSc1nc(NCCCCCCCC)nc(NCCN2CCCCC2)n1` [Compound D4S11N8], the “Absolute mRNA transfection efficiency” value worked out at 4.3%.

As to `CCCCCCCCCCCSc1nc(NCCCCCCCCC)nc(NCCN2CCCCC2)n1` [Compound D4S11N9], the “Absolute mRNA transfection efficiency” value was 4.2%.

Turning to `CCCCCCCCCCCNc1nc(NCCN2CCCCC2)nc(SCCCCCCCCCCC)n1` [Compound D4S11N11], the “Absolute mRNA transfection efficiency” value came to 2.0%.

In the case of `CCCCCCCCCCCCNc1nc(NCCN2CCCCC2)nc(SCCCCCCCCCCC)n1` [Compound D4S11N12], the “Absolute mRNA transfection efficiency” value came to 8.9%.

`CCCCCCCCCCCCCNc1nc(NCCN2CCCCC2)nc(SCCCCCCCCCCC)n1` [Compound D4S11N13]: the “Absolute mRNA transfection efficiency” value is recorded as 15.4%.

Take `CCCCCCCCCCCCCCCNc1nc(NCCN2CCCCC2)nc(SCCCCCCCCCCC)n1` [Compound D4S11N15]: the “Absolute mRNA transfection efficiency” value turned out to be 17.0%.

Take `CCCCCCCCCCCCCCCCNc1nc(NCCN2CCCCC2)nc(SCCCCCCCCCCC)n1` [Compound D4S11N16]: the “Absolute mRNA transfection efficiency” value was determined as 12.3%.

As for `CCCCCCCCCCCCCCCCCCNc1nc(NCCN2CCCCC2)nc(SCCCCCCCCCCC)n1` [Compound D4S11N18], the “Absolute mRNA transfection efficiency” value stood at 8.8%.

`CCCCCCCCCCCCSc1nc(NCCCCCC)nc(NCCN2CCCCC2)n1` [Compound D4S12N6]: the “Absolute mRNA transfection efficiency” value is reported as 0.9%.

For `CCCCCCCCCCCCSc1nc(NCCCCCCC)nc(NCCN2CCCCC2)n1` [Compound D4S12N7], the “Absolute mRNA transfection efficiency” value came out at 0.5%.

Take `CCCCCCCCCCCCSc1nc(NCCCCCCCC)nc(NCCN2CCCCC2)n1` [Compound D4S12N8]: the “Absolute mRNA transfection efficiency” value amounted to 1.6%.

For `CCCCCCCCCCCCSc1nc(NCCCCCCCCC)nc(NCCN2CCCCC2)n1` [Compound D4S12N9], the “Absolute mRNA transfection efficiency” value was 0.7%.

For the molecule `CCCCCCCCCCCCSc1nc(NCCCCCCCCCCC)nc(NCCN2CCCCC2)n1` [Compound D4S12N11], the “Absolute mRNA transfection efficiency” value amounted to 3.7%.
